Article PMC11904948, “Peptide‐Drug Conjugate for Therapeutic Reprogramming of Tumor‐Associated Macrophages in Breast Cancer” (Advanced Science, 2025)

Assays:
[1] = system: mouse bone marrow‐derived macrophages (BMDM); assay: Phagocytosis of fluorescent E. coli particles by BMDM; format: cell-based; details: 10 µM 4 h, washed, 48 h follow-up, versus MACTIDE treated and untreated BMDM
Experimental: We then analyzed if MACTIDE‐V affected the phagocytic activity of BMDM in vitro.
For the E. coli phagocytosis assay, cells were cultured in a 96‐well plate and treated with conjugates as previously described (for 4 h at a 10 µM concentration at 37 °C, then peptide conjugates were removed, washed with media and fresh media was added). The phagocytosis assay was performed at 48 h after treatment removal by removing the media, incubating fluorescent E. coli BioParticles for 2 h, followed by a 1 min incubation with trypan blue (Vybrant Phagocytosis Assay Kit, Invitrogen, Cat# V6694). Plates were read at 480 nm excitation and 520 nm emission using a BioTek Synergy H1 plate reader.

Solubility in water = format: physicochemical; details: method not given
Source text: Verteporfin (V), is a photosensitizer and inhibitor of the activation of YAP.^[ [41] ^] […] Verteporfin, in its liposomal formulation Visudyne, is an approved drug for certain ophthalmological indications. In clinical trials for cancer therapy, Verteporfin is mostly used for photodynamic therapy (clinical trial identifiers: NCT03067051, NCT03033225, NCT04590664).

Vert‐Ahx‐G(CTKSIPPIC)SPGAK‐OH (disulfide) [MACTIDE‐V]
phagocytosis of fluorescently labeled E. coli [1]: significantly higher phagocytosis | solubilization of Verteporfin by conjugation (Solubility in water): able to solubilize Verteporfin
